Test results published in patent US20250289827A1, “MORPHIC FORMS OF A MUTANT BRAF DEGRADER AND METHODS OF MANUFACTURE THEREOF” (C4 THERAPEUTICS, INC., priority 2022, published 2025).

Tests used:
[1] = Solubility in spray drying solvent system; type: physicochemical; settings: 80:20 dichloromethane:methanol, organic solvent or mixture
Text: The stability of the SDI was supported by XRPD and HPLC purity and assay data. The secondary drying parameters were established to ensure adequate SDI stability during drying and that the ICH limits for residual dichloromethane and methanol can be met. Through a feasibility batch and an engineering batch, an SDI manufacturing process is established.

[2] = Salt screening by slurry equilibration; type: physicochemical
Description: About 30 mg of Compound 1 Form A and 0.5 or 1 equivalent of base were added into a solvent in a 2 mL glass vial. […] Obtained mixtures were stirred at 25° C. for at least 48 hours.
Obtained suspensions were filtered through a 0.45 μm nylon membrane filter by centrifugation at 14,000 rpm. After being dried at 25° C. under vacuum for 2 h, solid parts were analyzed by XRPD.

Compound | solubility [1] | Slurry equilibration result (XRPD) ([2]; Ca(OH)2 (0.5 equiv.), Acetone, 5% water) | Slurry equilibration result (XRPD) ([2]; Ca(OH)2 (0.5 equiv.), Acetonitrile, 5% water) | Slurry equilibration result (XRPD) ([2]; Choline (1 equiv.), Acetone) | Slurry equilibration result (XRPD) ([2]; Choline (1 equiv.), Acetonitrile) | Slurry equilibration result (XRPD) ([2]; Choline (1 equiv.), Methanol) | Slurry equilibration result (XRPD) ([2]; Erbumine (1 equiv.), Methanol) | Slurry equilibration result (XRPD) ([2]; Free form only, Acetone) | Slurry equilibration result (XRPD) ([2]; Free form only, Acetonitrile) | Slurry equilibration result (XRPD) ([2]; Methylglucamine (1 equiv.), Methanol) | Slurry equilibration result (XRPD) ([2]; Mg(OH)2 (0.5 equiv.), Acetone, 5% water) | Slurry equilibration result (XRPD) ([2]; Mg(OH)2 (0.5 equiv.), Acetonitrile, 5% water) | Slurry equilibration result (XRPD) ([2]; NH3 (1 equiv.), Acetone) | Slurry equilibration result (XRPD) ([2]; NH3 (1 equiv.), Acetonitrile) | Slurry equilibration result (XRPD) ([2]; TRIS (1 equiv.), Methanol)
CCN(C)S(=O)(=O)Nc1ccc(F)c(Oc2ccc3ncn([C@H]4COC5(CCN(C(=O)CC6(O)CCN(c7cc8c(cc7F)c(N7CCC(=O)NC7=O)nn8C)CC6)CC5)C4)c(=O)c3c2)c1C#N [Compound 1, (3R)-3-[6-[2-cyano-3-[[ethyl(methyl)sulfamoyl]amino]-6-fluorophenoxy]-4-oxoquinazolin-3-yl]-8-[2-[1-[3-(2,4-dioxo-1,3-diazinan-1-yl)-5-fluoro-1-methylindazol-6-yl]-4-hydroxypiperidin-4-yl]acetyl]-1-oxa-8-azaspiro[4.5]decane] | > 100 mg/mL |  |  |  |  |  |  |  |  |  |  |  |  |  | 
CCN(C)S(=O)(=O)Nc1ccc(F)c(Oc2ccc3ncn([C@H]4COC5(CCN(C(=O)CC6(O)CCN(c7cc8c(cc7F)c(N7CCC(=O)NC7=O)nn8C)CC6)CC5)C4)c(=O)c3c2)c1C#N [Compound 1 Form A] |  | Sticky material | Sticky material | Sticky material | Sticky material | Clear solution | Few solids | Form B | Form B | Sticky material | Few solids | Form B | Hazy suspension | Form I* | Few solids
